This is an account of results in patent US12692283B2, “Lignan derivative, preparation method therefor and use thereof” (SHANGHAI INSTITUTE OF MATERIA MEDICA, CHINESE ACADEMY OF …, priority 2021, dated 2026).

Holding throughout (type): in vivo, mouse
Data set [1] concerns mice with liver fibrosis induced by carbon tetrachloride. As to the kind of experiment: Efficacy in mice with carbon tetrachloride-induced liver fibrosis. The conditions noted are these: intragastric 1 mg/kg/day and 3 mg/kg/day for 3 weeks. On the procedure: Experimental animals: 40 male C57 mice, 8 weeks old.
Modeling and administration: 400 μL of carbon tetrachloride (CCl4) was added to 3.6 mL of olive oil, mixed well, and then injected intraperitoneally at 0.1 mL/20 g, twice a week for six weeks. Six weeks later, 30 mice were divided into 3 groups, with 10 mice in each group. They were given physiological saline by gavage, 1 mg/kg A5 and 3 mg/kg A5. In addition, 10 mice that were not induced were given physiological saline as a control group. After 3 weeks of continuous administration, the mice were sacrificed, and the livers were removed, weighed, fixed and embedded, and the remaining liver tissue was cryopreserved for detection of hydroxyproline content.
Masson staining of mouse liver tissue: The mouse liver tissue was paraffin-embedded according to conventional methods, and sections were subjected to Masson staining. The specific procedures were as follows. […]
Detection of hydroxyproline content in mouse liver tissue: A hydroxyproline detection kit (Nanjing Jiancheng Bioengineering Institute) was used. […] Absorbance values of the supernatant at a wavelength of 550 nm were determined using a microplate reader. The hydroxyproline content per 100 mg of liver tissue was then calculated.

Data set [2] has as its system mice with oxazolone-induced enteritis. The data set is described as follows: Efficacy in mice with oxazolone-induced inflammatory bowel disease. The following applies: intragastric 1 mg/kg/day. On the procedure: Experimental animals: 30 male C57 mice, 8 weeks old.
Modeling and administration: 3% Oxazolone was dissolved in the solvent (acetone:olive oil, 1:4). After the mouse was anesthetized, the hair on the shoulder of the mouse was removed, and then 150 μL of Oxazolone with a mass fraction of 3% was added dropwise. On the 8th day after treatment, 1% Oxazolone was dissolved in a solvent (ethanol:sterilized water, 1:1). After the mice were anesthetized, 150 μL of 1% Oxazolone was administered rectally to create a model. The modeling mice were divided into two groups, with 10 mice in each group. One group was given compound A5 by gavage at 1 mg/kg/day, one group was given physiological saline, and the other group of 10 mice without modeling was used as a control group. Starting from the day of modeling, the weight of the mice was recorded every day. The feces of the mice were collected on the third day after rectal administration to observe the softness of the feces and whether there was bleeding. […]
Mouse enteritis disease activity index score: Mice were scored based on the degree of weight loss of the mouse (0: normal; 1:1-5%; 2:6-10%; 3:11-18%; 4: >18%), the degree of the softness of the feces (0: normal; 2: soft; 4: diarrhea), and the degree of feces bleeding (0: normal; 2: occult blood; 4: bloody stool), then each score was added and divide by three. […]

Data set [3] is described as follows: Oral pharmacokinetics of phosphate prodrug A5 in ICR mice (plasma and tissues). The conditions noted are these: oral 30 mg/kg. On the procedure: Compound A5 (30 mg/kg) was administered orally to overnight fasted ICR mice (male, n=3/time point). The mice were fed 2 hours after administration. Samples were collected before administration and 1 h, 2 h, 4 h, and 8 h after administration. Blood was collected in centrifuge tubes pretreated with heparin sodium and bis(4-nitrophenyl)phosphate (BNPP). After centrifugation at 11,000 rpm for 5 min at 4° C., plasma was obtained and stored at −80° C. Next, 100 […] of plasma sample, precipitated, vortexed for 1 min, and centrifuged (11,000 rpm) for 5 min. A mixture of 20 […] of methanol/acetonitrile (1:1, v/v) was taken to analyze the concentrations of compound A5 and compound A4-1a by LC-MS/MS. Heart (blood emptying), liver, and lung tissues were stored at −80° C. until analysis. After removal of contents, the duodenum and colon were quickly washed with cold saline containing BNPP and stored at −80° C. until analysis. […] 20 μL of the supernatant was redissolved in 20 μL of ACN/H2O (1:1, v/v), and the concentrations of compound A5 and compound A4-1a were analyzed by LC-MS/MS.

Take `COc1ccc(C[C@H]2COC(=O)[C@]2(C)Cc2ccc(OP(=O)(O)O)c(OC)c2)cc1OC` [Compound A5, 4-(((3R,4R)-4-(3,4-dimethoxybenzyl)-3-methyl-2-oxotetrahydrofuran-3-yl)methyl)-2-methoxyphenyl dihydrogen phosphate]: in data set [1], the “hydroxyproline (HYP) content in liver tissue” value was “significantly reduce the increase in hydroxyproline content” and the “positive rate of Masson staining in liver (degree of liver fibrosis)” value is “significantly reduce the degree of liver fibrosis”. For the same compound, in data set [2], the colon pathology score entry is reported as “significantly reduce the colon pathology score” and the “disease activity index of enteritis” value is on record as “significantly reduce the disease activity index”. Besides, the “drug concentration in plasma and various tissues” value in data set [3] was “good drug concentration in plasma and various tissues”.
